From US8957093B2, “N-biphenylmethylindole modulators of PPARG” (The Scripps Research Institute, priority 2011, dated 2015) come the findings set out here.

Test [1] has as its target Gal-4-PPAR (human PPAR LBD fused to GAL4 DNA-binding domain) (Homo sapiens (Human), UniProt P37231). In words: GAL4-PPARG LBD / UAS-luciferase transactivation assay in HEK 293T cells. It is filed as cell-based.
In the next test the target is GST-PPARG-LBD (Homo sapiens (Human), UniProt P37231). In words: Lanthascreen PPARG competitive binding assay (Invitrogen, TR-FRET). The note with it: NA = not active, inc = incomplete curve; for IC50: read-out: IC50 (nM) Lantha. As for the experimental part: Lanthascreen PPARG Competitive Binding Assay (Invitrogen)
The assay was performed according to manufacturer protocol. A mixture of […], 5 nM Tb-GST-antibody, 5 nM Fluormone Pan-PPAR Green, and serial dilutions of the experimental compound, beginning at 10 μM downwards, was added to wells of black 384-well low-volume plates (Greiner) to a total volume of 18 μL. All dilutions were made in TR-FRET assay buffer C. DMSO at 2% final concentration was used as a no-ligand control. Experiment was performed in triplicate, and incubated for 2 hours in the dark prior to assay read in Perkin Elmer ViewLux ultra HTS microplate reader. FRET signal was measured by excitation at 340 nm and emission at 520 nm for fluorescein and 490 nm for terbium. Fold change over DMSO was calculated using GraphPad Prism Software (La Jolla, Calif.) by calculating 520 nm/490 nm ratio. Graphs were plotted as fold change of FRET signal for compound treatment over DMSO-only control.
For orientation: In TR-FRET formats the signal depends on donor and acceptor labels being close together.

Where [2] appears, read: Lanthascreen competitive binding.
[3] abbreviates: Lanthascreen PPARG competitive binding.

Read-outs that look alike come from different tables or passages of the source.

Chain of GST-PPARG-LBD (P37231 238-503): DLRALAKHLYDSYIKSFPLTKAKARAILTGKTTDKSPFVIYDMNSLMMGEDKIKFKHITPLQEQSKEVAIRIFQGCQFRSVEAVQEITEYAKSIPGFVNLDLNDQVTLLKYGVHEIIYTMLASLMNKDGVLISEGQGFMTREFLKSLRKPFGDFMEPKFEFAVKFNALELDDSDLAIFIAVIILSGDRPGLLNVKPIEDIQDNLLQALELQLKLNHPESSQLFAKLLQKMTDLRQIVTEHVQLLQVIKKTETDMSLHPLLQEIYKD
Chain of Gal-4-PPAR (human PPAR LBD fused to GAL4 DNA-binding domain) (P37231 238-503): as above

One may read the EC50 as the midpoint of the concentration-response curve. As a reminder, the IC50 is the concentration that inhibits the measured activity by half. For the molecule `Cc1c(C)n(Cc2ccc(-c3ccccc3C(=O)O)cc2)c2ccc(C(=O)N[C@@H](C)c3cc(C(F)(F)F)ccc3F)cc12` [Example 221, (S)-4′-((5-((1-(2-fluoro-5-(trifluoromethyl)phenyl)ethyl)carbamoyl)-2,3-dimethyl-1H-indol-1-yl)methyl)-[1,1′-biphenyl]-2-carboxylic acid], in test [1] (GAL4 transactivation, HEK 293T cells, NA = not active, read-out: EC50 (nM) GAL4), the concentration giving a half-maximal response (EC50) came to 156 nM. Further, the activation at 10 µM in test [1] (HEK-293T, 18 h, read-out: % transactivation at 10 μM (GAL4)) is 20%. Besides, the IC50 on GST-PPARG-LBD (setting [2]) turned out to be 11 nM.
Turning to `COc1ccc(CNC(=O)c2ccc3c(c2)c(C)c(C)n3Cc2ccc(-c3ccccc3C(=O)O)cc2)cc1` [Example 104, 4′-((5-(4-methoxybenzylcarbamoyl)-2,3-dimethyl-1H-indol-1-yl)methyl)biphenyl-2-carboxylic acid], the IC50 at GST-PPARG-LBD (setting [2]) came to 7 nM.
Take `Cc1c(C)n(Cc2ccc(-c3ccccc3C#N)cc2)c2ccc(C(=O)N[C@@H](C)c3cccc(C(F)(F)F)c3)cc12` [Example 282, (S)-1-((2′-cyano-[1,1′-biphenyl]-4-yl)methyl)-2,3-dimethyl-N-(1-(3-(trifluoromethyl)phenyl)ethyl)-1H-indole-5-carboxamide]: the “IC50 (nM) Lantha” value at GST-PPARG-LBD (setting [3]) is given as “inc”.
`Cc1c(C)n(Cc2ccc(-c3ccccc3C#N)cc2)c2ccc(C(=O)N[C@@H](C)c3ccc(OC(F)(F)F)cc3)cc12` [Example 279, (S)-1-((2′-cyano-[1,1′-biphenyl]-4-yl)methyl)-2,3-dimethyl-N-(1-(4-(trifluoromethoxy)phenyl)ethyl)-1H-indole-5-carboxamide]: the “IC50 (nM) Lantha” value at GST-PPARG-LBD (setting [3]) is on record as “inc”.
As for `Cc1c(C)n(Cc2ccc(-c3ccccc3S(N)(=O)=O)cc2)c2ccc(C(=O)N[C@@H](C)c3cccc(C(C)C)c3)cc12` [Example 247, (S)—N-(1-(3-isopropylphenyl)ethyl)-2,3-dimethyl-1-((2′-sulfamoyl-[1,1′-biphenyl]-4-yl)methyl)-1H-indole-5-carboxamide], the 50% inhibitory concentration (IC50) at GST-PPARG-LBD (setting [2]) is greater than 1000 nM.
As for `COc1cc(CNC(=O)c2ccc3c(c2)c(C)c(C)n3Cc2ccc(-c3ccccc3C(=O)O)cc2)cc(OC)c1` [compound 22, 4′-((5-(3,5-Dimethoxybenzylcarbamoyl)-2,3-dimethyl-1H-indol-1-yl)methyl)biphenyl-2-carboxylic acid], at GST-PPARG-LBD (setting [2]), the concentration for half-maximal inhibition (IC50) is 10 nM.
Take `Cc1c(C)n(Cc2ccc(-c3ccccc3C(=O)NCCO)cc2)c2ccc(C(=O)N[C@@H](C)c3cccc(C(C)C)c3)cc12` [Example 307, (S)-1-((2′-((2-Hydroxyethyl)carbamoyl)-[1,1′-biphenyl]-4-yl)methyl)-N-(1-(3-isopropylphenyl)ethyl)-2,3-dimethyl-1H-indole-5-carboxamide]: the IC50 at GST-PPARG-LBD (setting [3]) stood at 600 nM.
Turning to `Cc1c(C)n(Cc2ccc(-c3ccccc3C#N)cc2)c2ccc(C(=O)N[C@@H](C)c3ccc(C(C)(C)C)cc3)cc12` [Example 184, (S)—N-(1-(4-(tert-butyl)phenyl)ethyl)-1-((2′-cyano-[1,1′-biphenyl]-4-yl)methyl)-2,3-dimethyl-1H-indole-5-carboxamide], the “IC50 (nM) Lantha” value on GST-PPARG-LBD (setting [2]) is on record as “^2inc^”.
Consider `Cc1c(C)n(Cc2ccc(-c3ccccc3C#N)cc2)c2ccc(C(=O)N[C@@H](C)c3cccc(C(C)(C)C)c3)cc12` [Example 185, (S)—N-(1-(3-(tert-butyl)phenyl)ethyl)-1-((2′-cyano-[1,1′-biphenyl]-4-yl)methyl)-2,3-dimethyl-1H-indole-5-carboxamide], for which the “IC50 (nM) Lantha” value on GST-PPARG-LBD (setting [2]) is on record as “inc”.
As to `Cc1c(C)n(Cc2ccc(-c3ccccc3C#N)cc2)c2ccc(C(=O)N[C@@H](C)c3ccc(Cl)c(Cl)c3)cc12` [Example 290, (S)-1-((2′-cyano-[1,1′-biphenyl]-4-yl)methyl)-N-(1-(3,4-dichlorophenyl)ethyl)-2,3-dimethyl-1H-indole-5-carboxamide], the “IC50 (nM) Lantha” value on GST-PPARG-LBD (setting [3]) was “inc”.
Consider `Cc1c(C)n(Cc2ccc(-c3ccccc3C(=O)O)cc2)c2ccc(C(=O)NCc3cccc4ccccc34)cc12` [Example 115, 4′-((2,3-dimethyl-5-(naphthalen-1-ylmethylcarbamoyl)-1H-indol-1-yl)methyl)biphenyl-2-carboxylic acid], for which, on GST-PPARG-LBD (setting [2]), the IC50 was 64 nM.
`C[C@H](NC(=O)c1ccc2c(ccn2Cc2ccc(-c3ccccc3O)cc2)c1)c1ccc([N+](=O)[O-])cc1` [Example 40, (S)-1-((2′-Hydroxy-[1,1′-biphenyl]-4-yl)methyl)-N-(1-(4-nitrophenyl)ethyl)-1H-indole-5-carboxamide]: the half-inhibitory concentration (IC50) at GST-PPARG-LBD (setting [2]) is greater than 1000 nM.
Consider `Cc1c(C)n(Cc2ccc(-c3ccccc3C#N)cc2)c2ccc(C(=O)N[C@@H](C)c3cccc(F)c3)cc12` [Example 293, (S)-1-((2′-cyano-[1,1′-biphenyl]-4-yl)methyl)-N-(1-(3-fluorophenyl)ethyl)-2,3-dimethyl-1H-indole-5-carboxamide], for which the “IC50 (nM) Lantha” value on GST-PPARG-LBD (setting [3]) was “inc”.
`C[C@H](NC(=O)c1ccc2c(ccn2Cc2ccc(-c3ccc(C(=O)O)cc3)cc2)c1)c1ccc([N+](=O)[O-])cc1` [Example 59, (S)-4′-((5-((1-(4-Nitrophenyl)ethyl)carbamoyl)-1H-indol-1-yl)methyl)-[1,1′-biphenyl]-4-carboxylic acid]: the IC50 at GST-PPARG-LBD (setting [2]) was greater than 1000 nM.
Take `Cc1c(C)n(Cc2ccc(-c3ccccc3C#N)cc2)c2ccc(C(=O)N[C@@H](C)c3ccc(C(F)(F)F)cc3)cc12` [Example 277, (S)-1-((2′-cyano-[1,1′-biphenyl]-4-yl)methyl)-2,3-dimethyl-N-(1-(4-(trifluoromethyl)phenyl)ethyl)-1H-indole-5-carboxamide]: the “IC50 (nM) Lantha” value on GST-PPARG-LBD (setting [3]) is “inc”.
For the molecule `Cc1ccc(-c2ccc(Cn3ccc4cc(C(=O)N[C@@H](C)c5ccc([N+](=O)[O-])cc5)ccc43)cc2)cc1` [Example 57, (S)-1-((4′-Methyl-[1,1′-biphenyl]-4-yl)methyl)-N-(1-(4-nitrophenyl)ethyl)-1H-indole-5-carboxamide], the 50% inhibitory concentration (IC50) on GST-PPARG-LBD (setting [2]) is greater than 1000 nM.
Same read-out and setting: the same measure for `Cc1c(C)n(Cc2ccc(-c3ccccc3C(=O)O)cc2)c2ccc(C(=O)NCc3cccc(CN)c3)cc12` [Example 82, 4′-((5-(3-(aminomethyl)benzylcarbamoyl)-2,3-dimethyl-1H-indol-1-yl)methyl)biphenyl-2-carboxylic acid]: greater than 1000 nM.
`COc1ccc([C@H](C)NC(=O)c2ccc3c(c2)c(C)c(C)n3Cc2ccc(-c3ccccc3C#N)cc2)cc1` [Example 285, (S)-1-((2′-cyano-[1,1′-biphenyl]-4-yl)methyl)-N-(1-(4-methoxyphenyl)ethyl)-2,3-dimethyl-1H-indole-5-carboxamide]: at GST-PPARG-LBD (setting [3]), the “IC50 (nM) Lantha” value is “inc”.
For the molecule `Cc1c(C)n(Cc2ccc(-c3ccccc3C(=O)NCCN(C)C)cc2)c2ccc(C(=O)N[C@@H](C)c3cccc(C(C)C)c3)cc12` [Example 310, (S)-1-((2′-((2-(Dimethylamino)ethyl)carbamoyl)-[1,1′-biphenyl]-4-yl)methyl)-N-(1-(3-isopropylphenyl)ethyl)-2,3-dimethyl-1H-indole-5-carboxamide], on GST-PPARG-LBD (setting [3]), the 50% inhibitory concentration (IC50) was greater than 1000 nM.
Turning to `CC(=O)NS(=O)(=O)c1ccccc1-c1ccc(Cn2c(C)c(C)c3cc(C(=O)N[C@@H](C)c4cccc(C(C)C)c4)ccc32)cc1` [Example 248, (S)-1-((2′-(N-acetylsulfamoyl)-[1,1′-biphenyl]-4-yl)methyl)-N-(1-(3-isopropylphenyl)ethyl)-2,3-dimethyl-1H-indole-5-carboxamide], the IC50 at GST-PPARG-LBD (setting [2]) was greater than 1000 nM.
For `CCOc1cccc([C@H](C)NC(=O)c2ccc3c(c2)c(C)c(C)n3Cc2ccc(-c3ccccc3C#N)cc2)c1` [Example 280, (S)-1-((2′-cyano-[1,1′-biphenyl]-4-yl)methyl)-N-(1-(3-ethoxyphenyl)ethyl)-2,3-dimethyl-1H-indole-5-carboxamide], the “IC50 (nM) Lantha” value at GST-PPARG-LBD (setting [3]) is reported as “inc”.
Turning to `Cc1c(C)n(Cc2ccc(-c3ccccc3C#N)cc2)c2ccc(C(=O)N[C@@H](C)c3ccc(C(C)C)cc3)cc12` [Example 186, (S)-1-((2′-cyano-[1,1′-biphenyl]-4-yl)methyl)-N-(1-(4-isopropylphenyl)ethyl)-2,3-dimethyl-1H-indole-5-carboxamide], the “IC50 (nM) Lantha” value at GST-PPARG-LBD (setting [2]) is reported as “inc”.
As to `Cc1c(C)n(Cc2ccc(-c3ccccc3C(=O)O)cc2)c2ccc(C(=O)N[C@@H](C)c3cc(Cl)ccn3)cc12` [Example 265, (S)-4′-((5-((1-(4-chloropyridin-2-yl)ethyl)carbamoyl)-2,3-dimethyl-1H-indol-1-yl)methyl)-[1,1′-biphenyl]-2-carboxylic acid], the IC50 on GST-PPARG-LBD (setting [2]) was found to be 4 nM.
On the same count and under the same terms, the same measure for `COc1ccc(CNC(=O)c2ccc3c(c2)c(C)c(C)n3Cc2ccc(-c3ccccc3C(=O)O)cc2)cc1F` [Example 111, 4′-((5-(3-fluoro-4-methoxybenzylcarbamoyl)-2,3-dimethyl-1H-indol-1-yl)methyl)biphenyl-2-carboxylic acid]: 13 nM.
`Cc1c(C)n(Cc2ccc(-c3ccccc3C#N)cc2)c2ccc(C(=O)N[C@@H](C)c3ccc(OC(C)C)cc3)cc12` [Example 278, (S)-1-((2′-cyano-[1,1′-biphenyl]-4-yl)methyl)-N-(1-(4-isopropoxyphenyl)ethyl)-2,3-dimethyl-1H-indole-5-carboxamide]: the 50% inhibitory concentration (IC50) at GST-PPARG-LBD (setting [3]) turned out to be 808 nM.
